The conditions of data set [1]: pH=8; cited from earlier work.
Data set [2] addresses T1, horseradish peroxidase (HRP) (Armoracia rusticana, UniProt P00433).
T1 sequence (P00433 31-338): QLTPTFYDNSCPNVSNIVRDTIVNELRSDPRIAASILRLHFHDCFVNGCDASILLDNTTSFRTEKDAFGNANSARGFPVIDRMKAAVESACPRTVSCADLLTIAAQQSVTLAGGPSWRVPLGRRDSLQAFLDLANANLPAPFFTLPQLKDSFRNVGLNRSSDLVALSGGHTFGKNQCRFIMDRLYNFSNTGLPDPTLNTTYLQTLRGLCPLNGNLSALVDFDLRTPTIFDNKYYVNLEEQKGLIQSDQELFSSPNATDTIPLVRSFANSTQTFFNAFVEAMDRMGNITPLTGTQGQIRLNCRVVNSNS
The data set can be described thus: Amplex red fluorescence turn-on with HRP and H2O2. It counts as biochemical. Conditions: HRP 1 unit/mL, H2O2 1 uM, 10 μM AR in PBS, room temperature, 5 min. The method, then: FIG. 6 illustrates the fluorescence spectra of CDA and Amplex red. a) Fluorescent emission spectra of PBS, CDA, and AR (10 μM probes in PBS; excitation, 525 nm). b) Fluorescent emission spectra of CDA treated with esterase (1 μg/mL), TEM-1 Bla (100 nM) and H2O2 (1 mM) at room temperature for 8 hours. c) Fluorescent emission spectra of AR and AR treated with HRP and H2O2 at room temperature for 5 min (10 μM AR in PBS, HRP 1 unit/mL, H2O2 1 uM) (excitation, 525 nm). A.U. indicates arbitrary units.
The synthesis of CDA is outlined in Scheme 1 (FIG. 28). DARR was prepared from resazurin sodium salt through reduction and acetylation (Han et al., Chemistry (2016) 11: 818-822) and conjugated to the oxidized cephalosporin chloride with a self-immolative linker 4-mercaptobenzyl alcohol to afford CDA after reduction and deprotection. When incubated with a recombinant class A cephalosporin-hydrolyzing β-lactamase TEM-1 (TEM-1 Bla, FIGS. 7 and 8), esterase, and hydrogen peroxide (H2O2), CDA generated approximately 1200-fold fluorescence turn-on (FIGS. 1b and 6b).

The test system of a further data set is esterase. Description: DARR response to esterase and H2O2. It counts as biochemical. Particulars: esterase 1 μg/mL, different concentrations of H2O2, room temperature. The method, then: FIG. 11 illustrates that esterase sensitizes DARR in response to H2O2. a) Structure of DARR and its hydrolysis by esterase and oxidation into fluorescent resorufin by H2O2. b) Fluorescence enhancement of DARR treated with esterase (1 μg/mL) and different concentrations of H2O2 at room temperature. Data were collected on a Tecan Safire microplate reader with excitation at 570 nm and emission at 600 nm. A.U. indicates arbitrary units.
As oxidation is the essential step in converting β-lactamase/esterase processed CDA to resorufin, the stability of CDA was evaluated in different concentrations of H2O2 (FIG. 2a). […] The sulfur center of CDA was also stable in H2O2 (1 mM) (FIG. 9).

The structures appear in SMILES notation.

`O=c1ccc2nc3ccc(O)cc3oc-2c1` [resorufin]: the “fluorescence quantum yield ϕ” value in data set [1] is 0.75. Molecule `CC(=O)N1c2ccc(O)cc2Oc2cc(O)ccc21` [Amplex red, 10-Acetyl-3,7-dihydroxyphenoxazine] displayed a fluorescence turn-on in data set [2] of 413 fold. For `CC(=O)Oc1ccc2c(c1)Oc1cc(OC(C)=O)ccc1N2` [DARR, 10H-phenoxazine-3,7-diyl diacetate], the response to esterase result in the data set with esterase was “fast response to esterase”.

(Values after patent US20240240226A1, “FLUOROGENIC ASSAY FOR RAPID SCREENING OF BACTERIAL BETA-LACTAMASE ACTIVITY” (The Board of Trustees of the Leland Stanford Junior …, priority 2021, published 2024).)
